According to ChEMBL document CHEMBL5463729, “Data for DCP probe BAY 1753011” (2023):
Calls of active or inactive are those of the source. No cut-off for these calls is given here.

Columns and labels:
[1] = target: Receptor tyrosine-protein kinase erbB-2 (Homo sapiens) (UniProt P04626); experiment: Inhibition of ErbB2(h) at 10.0 µM in the Eurofins Kinase panel; conditions: Compound concentration 10.0 uM
[2] = target: Serine/threonine-protein kinase PLK1 (Homo sapiens) (UniProt P53350); experiment: Inhibition of Plk1(h) at 10.0 µM in the Eurofins Kinase panel; conditions: Compound concentration 10.0 uM
[3] = target: Sodium-dependent serotonin transporter (Homo sapiens) (UniProt P31645); conditions: Compound concentration 10.0 uM
[4] = target: T1, Muscarinic acetylcholine receptor M4 (Homo sapiens) (UniProt P08173); conditions: Compound concentration 10.0 uM
T1 sequence (whole entry): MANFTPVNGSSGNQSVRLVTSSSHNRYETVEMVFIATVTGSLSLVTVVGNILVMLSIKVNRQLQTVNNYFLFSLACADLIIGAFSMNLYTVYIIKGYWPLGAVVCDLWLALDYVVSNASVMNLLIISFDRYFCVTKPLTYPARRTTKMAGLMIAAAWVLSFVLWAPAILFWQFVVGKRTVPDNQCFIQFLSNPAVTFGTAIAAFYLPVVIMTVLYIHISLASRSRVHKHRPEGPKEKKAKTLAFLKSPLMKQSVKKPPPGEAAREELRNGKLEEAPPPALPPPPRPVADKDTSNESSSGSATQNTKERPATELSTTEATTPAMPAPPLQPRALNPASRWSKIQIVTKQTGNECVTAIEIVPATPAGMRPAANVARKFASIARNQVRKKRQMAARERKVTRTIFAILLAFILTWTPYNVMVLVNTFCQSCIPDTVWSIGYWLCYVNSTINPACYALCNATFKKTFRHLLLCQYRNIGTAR

[5] = target: Ephrin type-B receptor 1 (Homo sapiens) (UniProt P54762); experiment: Inhibition of EphB1(h) at 10.0 µM in the Eurofins Kinase panel; conditions: Compound concentration 10.0 uM
[6] = target: Serine/threonine-protein kinase Sgk3 (Homo sapiens) (UniProt Q96BR1); experiment: Inhibition of SGK3(h) at 10.0 µM in the Eurofins Kinase panel; conditions: Compound concentration 10.0 uM
[7] = target: Mu-type opioid receptor (Homo sapiens) (UniProt P35372); conditions: Compound concentration 10.0 uM
[8] = target: Mitogen-activated protein kinase 1 (Homo sapiens) (UniProt P28482); experiment: Inhibition of MAPK1(h) at 10.0 µM in the Eurofins Kinase panel; conditions: Compound concentration 10.0 uM
[9] = target: Serine/threonine-protein kinase NLK (Homo sapiens) (UniProt Q9UBE8); experiment: Inhibition of NLK (h) at 10.0 µM in the Eurofins Kinase panel; conditions: Compound concentration 10.0 uM
[10] = target: T2, Oxytocin receptor (Homo sapiens, UniProt P30559); experiment: Radiometric OXTR binding assay (Eurofins #260900)
T2 sequence (P30559 whole entry): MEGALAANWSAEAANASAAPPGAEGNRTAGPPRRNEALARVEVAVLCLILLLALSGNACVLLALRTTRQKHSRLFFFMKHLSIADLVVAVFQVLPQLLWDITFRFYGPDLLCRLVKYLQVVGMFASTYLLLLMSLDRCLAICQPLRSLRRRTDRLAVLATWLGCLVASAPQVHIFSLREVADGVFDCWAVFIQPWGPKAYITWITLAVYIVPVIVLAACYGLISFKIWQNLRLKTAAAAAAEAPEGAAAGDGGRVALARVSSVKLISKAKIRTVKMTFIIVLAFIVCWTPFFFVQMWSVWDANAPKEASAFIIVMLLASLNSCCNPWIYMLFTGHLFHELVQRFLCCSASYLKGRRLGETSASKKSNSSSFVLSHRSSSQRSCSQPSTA

[11] = target: Mitogen-activated protein kinase 8 (Homo sapiens) (UniProt P45983); experiment: Inhibition of JNK1alpha1(h) at 10.0 µM in the Eurofins Kinase panel; conditions: Compound concentration 10.0 uM
[12] = target: Serine/threonine-protein kinase ULK2 (Homo sapiens) (UniProt Q8IYT8); experiment: Inhibition of ULK2(h) at 10.0 µM in the Eurofins Kinase panel; conditions: Compound concentration 10.0 uM
[13] = target: Protein kinase C alpha type (Homo sapiens) (UniProt P17252); experiment: Inhibition of PKCalpha(h) at 10.0 µM in the Eurofins Kinase panel; conditions: Compound concentration 10.0 uM
[14] = target: SRSF protein kinase 1 (Homo sapiens) (UniProt Q96SB4); experiment: Inhibition of SRPK1(h) at 10.0 µM in the Eurofins Kinase panel; conditions: Compound concentration 10.0 uM
[15] = target: Serine/threonine-protein kinase Nek3 (Homo sapiens) (UniProt P51956); experiment: Inhibition of NEK3(h) at 10.0 µM in the Eurofins Kinase panel; conditions: Compound concentration 10.0 uM
[16] = target: Protein kinase C epsilon type (Homo sapiens) (UniProt Q02156); experiment: Inhibition of PKCepsilon(h) at 10.0 µM in the Eurofins Kinase panel; conditions: Compound concentration 10.0 uM
[17] = target: Tyrosine-protein kinase receptor UFO (Homo sapiens) (UniProt P30530); experiment: Inhibition of Axl(h) at 10.0 µM in the Eurofins Kinase panel; conditions: Compound concentration 10.0 uM
[18] = target: Serine/threonine-protein kinase Nek7 (Homo sapiens) (UniProt Q8TDX7); experiment: Inhibition of NEK7(h) at 10.0 µM in the Eurofins Kinase panel; conditions: Compound concentration 10.0 uM
[19] = target: Casein kinase 2 (Homo sapiens) (UniProt P67870+P68400+P19784+Q8NEV1); experiment: Inhibition of CK2(h) at 10.0 µM in the Eurofins Kinase panel; format: protein assay; conditions: Compound concentration 10.0 uM
[20] = target: Insulin receptor (Homo sapiens) (UniProt P06213); experiment: Inhibition of IR(h), activated at 10.0 µM in the Eurofins Kinase panel; conditions: Compound concentration 10.0 uM
[21] = target: Serine/threonine-protein kinase 32A (Homo sapiens) (UniProt Q8WU08); experiment: Inhibition of STK32A(h) at 10.0 µM in the Eurofins Kinase panel; conditions: Compound concentration 10.0 uM
[22] = target: Type-2 angiotensin II receptor (Homo sapiens) (UniProt P50052); conditions: Compound concentration 10.0 uM
[23] = target: Cyclin-dependent kinase-like 1 (Homo sapiens) (UniProt Q00532); experiment: Inhibition of CDKL1(h) at 10.0 µM in the Eurofins Kinase panel; conditions: Compound concentration 10.0 uM
[24] = target: Ribosomal protein S6 kinase beta-1 (Homo sapiens) (UniProt P23443); experiment: Inhibition of p70S6K(h) at 10.0 µM in the Eurofins Kinase panel; conditions: Compound concentration 10.0 uM
[25] = target: Activin receptor type-1-like (Homo sapiens) (UniProt P37023); experiment: Inhibition of ALK1(h) at 10.0 µM in the Eurofins Kinase panel; conditions: Compound concentration 10.0 uM

Sequence of Mu-type opioid receptor (Homo sapiens) (P35372 whole entry): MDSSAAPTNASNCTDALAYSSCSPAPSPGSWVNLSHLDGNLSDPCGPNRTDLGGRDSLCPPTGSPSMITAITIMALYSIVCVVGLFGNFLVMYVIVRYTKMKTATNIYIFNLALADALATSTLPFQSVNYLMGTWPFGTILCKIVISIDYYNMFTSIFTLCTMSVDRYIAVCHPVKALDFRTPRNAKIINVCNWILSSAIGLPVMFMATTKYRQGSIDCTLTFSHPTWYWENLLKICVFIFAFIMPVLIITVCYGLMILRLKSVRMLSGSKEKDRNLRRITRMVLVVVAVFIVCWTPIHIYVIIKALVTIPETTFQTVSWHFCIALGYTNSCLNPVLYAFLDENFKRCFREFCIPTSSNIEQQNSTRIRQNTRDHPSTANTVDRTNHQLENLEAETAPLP
Sequence of Sodium-dependent serotonin transporter (Homo sapiens) (P31645 whole entry, looked up): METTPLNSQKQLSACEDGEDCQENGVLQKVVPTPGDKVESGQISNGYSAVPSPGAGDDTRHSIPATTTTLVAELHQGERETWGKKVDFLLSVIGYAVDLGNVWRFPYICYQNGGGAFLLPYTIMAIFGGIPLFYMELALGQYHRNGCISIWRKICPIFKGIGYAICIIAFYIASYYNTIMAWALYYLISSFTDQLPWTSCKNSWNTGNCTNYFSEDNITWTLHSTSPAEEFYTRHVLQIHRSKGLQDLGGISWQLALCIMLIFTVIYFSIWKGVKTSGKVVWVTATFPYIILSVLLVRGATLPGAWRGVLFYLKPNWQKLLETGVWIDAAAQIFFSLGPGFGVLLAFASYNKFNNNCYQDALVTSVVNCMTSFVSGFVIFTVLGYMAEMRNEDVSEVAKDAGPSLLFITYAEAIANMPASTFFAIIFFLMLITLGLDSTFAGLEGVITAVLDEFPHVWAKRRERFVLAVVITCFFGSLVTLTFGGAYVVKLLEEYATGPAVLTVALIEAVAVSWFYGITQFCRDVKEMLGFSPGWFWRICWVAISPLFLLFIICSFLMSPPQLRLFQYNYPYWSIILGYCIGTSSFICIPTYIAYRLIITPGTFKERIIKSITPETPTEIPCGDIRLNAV
Sequence of Serine/threonine-protein kinase Nek7 (Homo sapiens) (Q8TDX7 whole entry, looked up): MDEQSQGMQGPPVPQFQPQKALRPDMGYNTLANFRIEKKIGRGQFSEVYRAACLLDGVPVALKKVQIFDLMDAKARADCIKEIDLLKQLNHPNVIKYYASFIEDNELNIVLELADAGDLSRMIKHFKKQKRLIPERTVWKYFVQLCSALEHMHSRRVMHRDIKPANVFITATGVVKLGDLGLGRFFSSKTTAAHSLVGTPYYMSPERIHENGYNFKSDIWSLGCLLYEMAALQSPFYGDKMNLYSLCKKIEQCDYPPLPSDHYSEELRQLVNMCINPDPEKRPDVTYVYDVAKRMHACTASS
Sequence of Tyrosine-protein kinase receptor UFO (Homo sapiens) (P30530 whole entry): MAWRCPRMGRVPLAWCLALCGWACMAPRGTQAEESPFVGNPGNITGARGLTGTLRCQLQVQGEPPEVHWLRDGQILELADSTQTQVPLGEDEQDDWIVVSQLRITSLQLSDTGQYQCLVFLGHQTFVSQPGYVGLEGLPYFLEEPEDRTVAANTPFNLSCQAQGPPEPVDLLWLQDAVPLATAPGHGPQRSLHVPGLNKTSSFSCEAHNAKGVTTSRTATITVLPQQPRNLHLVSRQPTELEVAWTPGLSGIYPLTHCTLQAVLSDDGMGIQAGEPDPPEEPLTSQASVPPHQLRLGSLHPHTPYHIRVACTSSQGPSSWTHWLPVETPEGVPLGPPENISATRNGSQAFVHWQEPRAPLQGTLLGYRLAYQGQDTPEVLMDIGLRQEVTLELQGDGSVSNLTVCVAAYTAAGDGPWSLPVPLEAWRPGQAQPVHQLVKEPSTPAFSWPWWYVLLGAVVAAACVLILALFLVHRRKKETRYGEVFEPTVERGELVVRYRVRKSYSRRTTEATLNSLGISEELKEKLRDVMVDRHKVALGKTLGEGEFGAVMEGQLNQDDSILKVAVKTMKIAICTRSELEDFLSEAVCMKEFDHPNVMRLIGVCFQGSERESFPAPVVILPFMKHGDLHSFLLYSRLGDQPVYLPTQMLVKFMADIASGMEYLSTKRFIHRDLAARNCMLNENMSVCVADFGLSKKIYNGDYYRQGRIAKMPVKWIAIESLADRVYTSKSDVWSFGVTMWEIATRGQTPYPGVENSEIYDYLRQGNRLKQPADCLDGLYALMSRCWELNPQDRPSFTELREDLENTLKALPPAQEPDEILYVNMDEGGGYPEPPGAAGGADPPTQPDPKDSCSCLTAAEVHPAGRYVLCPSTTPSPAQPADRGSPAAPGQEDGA
Sequence of Serine/threonine-protein kinase PLK1 (Homo sapiens) (P53350 whole entry): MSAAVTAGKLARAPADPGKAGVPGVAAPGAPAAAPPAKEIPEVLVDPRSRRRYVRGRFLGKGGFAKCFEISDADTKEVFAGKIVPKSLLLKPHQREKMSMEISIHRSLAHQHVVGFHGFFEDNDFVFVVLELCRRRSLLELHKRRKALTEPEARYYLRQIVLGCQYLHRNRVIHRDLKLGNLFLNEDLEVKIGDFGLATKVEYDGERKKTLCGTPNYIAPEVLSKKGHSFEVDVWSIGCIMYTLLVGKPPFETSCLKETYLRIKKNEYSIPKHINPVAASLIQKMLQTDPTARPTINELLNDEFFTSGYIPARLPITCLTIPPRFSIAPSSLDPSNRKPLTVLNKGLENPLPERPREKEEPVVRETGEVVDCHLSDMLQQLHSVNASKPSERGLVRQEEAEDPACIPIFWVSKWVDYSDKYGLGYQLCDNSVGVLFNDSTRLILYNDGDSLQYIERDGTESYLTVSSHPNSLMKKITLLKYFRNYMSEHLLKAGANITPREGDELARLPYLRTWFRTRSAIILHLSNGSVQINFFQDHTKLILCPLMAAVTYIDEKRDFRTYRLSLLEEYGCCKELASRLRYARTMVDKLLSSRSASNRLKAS
Sequence of SRSF protein kinase 1 (Homo sapiens) (Q96SB4 whole entry): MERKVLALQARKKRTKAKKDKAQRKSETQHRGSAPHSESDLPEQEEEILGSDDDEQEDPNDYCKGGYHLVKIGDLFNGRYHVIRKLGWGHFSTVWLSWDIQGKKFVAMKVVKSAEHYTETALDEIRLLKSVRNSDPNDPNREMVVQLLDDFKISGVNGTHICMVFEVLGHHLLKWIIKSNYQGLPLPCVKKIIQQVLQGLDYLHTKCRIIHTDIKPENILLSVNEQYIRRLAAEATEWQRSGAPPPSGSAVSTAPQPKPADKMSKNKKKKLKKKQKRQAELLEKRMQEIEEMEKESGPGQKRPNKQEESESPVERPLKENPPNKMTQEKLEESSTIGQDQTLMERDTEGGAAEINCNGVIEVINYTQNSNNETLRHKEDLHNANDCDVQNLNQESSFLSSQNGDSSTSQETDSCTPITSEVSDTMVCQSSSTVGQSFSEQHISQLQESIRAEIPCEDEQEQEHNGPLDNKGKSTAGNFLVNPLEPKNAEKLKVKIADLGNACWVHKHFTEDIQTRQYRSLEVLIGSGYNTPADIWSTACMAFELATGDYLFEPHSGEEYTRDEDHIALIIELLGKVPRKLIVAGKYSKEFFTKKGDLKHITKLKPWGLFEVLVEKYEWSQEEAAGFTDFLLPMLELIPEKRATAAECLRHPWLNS
Sequence of Ribosomal protein S6 kinase beta-1 (Homo sapiens) (P23443 whole entry, looked up): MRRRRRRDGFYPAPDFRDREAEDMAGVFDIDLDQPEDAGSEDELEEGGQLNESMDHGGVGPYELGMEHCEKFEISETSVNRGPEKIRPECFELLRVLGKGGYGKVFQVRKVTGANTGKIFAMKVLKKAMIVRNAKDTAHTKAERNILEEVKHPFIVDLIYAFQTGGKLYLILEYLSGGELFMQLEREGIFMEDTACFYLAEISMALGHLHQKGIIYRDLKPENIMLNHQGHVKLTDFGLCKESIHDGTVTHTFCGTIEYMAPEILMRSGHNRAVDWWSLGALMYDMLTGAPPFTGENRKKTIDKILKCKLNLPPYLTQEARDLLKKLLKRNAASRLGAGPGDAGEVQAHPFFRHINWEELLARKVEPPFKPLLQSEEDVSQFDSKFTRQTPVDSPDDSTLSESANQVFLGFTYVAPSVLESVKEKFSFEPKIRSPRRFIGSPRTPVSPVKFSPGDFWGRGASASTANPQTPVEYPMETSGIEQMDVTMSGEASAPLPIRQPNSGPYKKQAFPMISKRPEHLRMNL

SMILES	inhibition [1] [%]	inhibition [2] [%]	inhibition [3] [%]	inhibition [4] [%]	inhibition [5] [%]	inhibition [6] [%]	inhibition [7] [%]	inhibition [8] [%]	inhibition [9] [%]	Ki [10]	inhibition [11] [%]	inhibition [12] [%]	inhibition [13] [%]	inhibition [14] [%]	inhibition [15] [%]	inhibition [16] [%]	inhibition [17] [%]	inhibition [18] [%]	inhibition [19] [%]	inhibition [20] [%]	other results
O=c1n(Cc2cncn2-c2cccc(Cl)c2)nc(-c2ccc(Cl)cc2)n1C[C@H](O)C(F)(F)F	-4.27	-0.49	14.1	0	9.79	-5.09	6.13	-0.83	-1.74	> 10 µM (not active)	-1.22	1.8	2.18	-4.61	5.44	11	3.23	1.5	-3.37	2.21	inhibition [21]: -1.08%; inhibition [22]: -3%; inhibition [23]: 6.34%; inhibition [24]: 4.83%; inhibition [25]: -1.34%
C[C@H](O)c1nc(Cn2nc(-c3ccc(Cl)cc3)n(C[C@H](O)C(F)(F)F)c2=O)nn1-c1cccc(Cl)c1 [PECAVAPTAN]	-6.43	-2.91	9.13	7	4.68	-6.13	14.4	7.33	-2.51	0.0051 µM (active)	-3.82	5.09	1.13	-6.76	61	19.1	2.01	3.8	5.37	-4.02	inhibition [21]: 3.15%; inhibition [22]: 4%; inhibition [23]: 1.83%; inhibition [24]: 1.02%; inhibition [25]: -9.71%
